We go through two molecules from EP2346328B1, “USE OF COSTIC ACID OR EXTRACTS OF DITTRICHIA VISCOSA AGAINST VARROA DESTRUCTOR” (Katerinopoulos, E. Haralambos, priority 2008, dated 2009).

One series concerns V. destructor. In words: In vivo vial experiments with V. destructor: mite mortality on exposure to treated filter paper. On the set-up: species or system Varroa destructor. As to the method:
In vivo Experiments with V. destructor. The mites (V. destructor) were collected from colonies of A. mellifera. For mite collection two different methods were used: The first method involved removal of the mites from infected adult bees using a soft brush with the help of a stereoscope. In method b) infected adult honeybees were transferred directly from bee frames into a wire-screen cylinder. Then the cylinder was placed inside a second Plexiglas cylinder and CO2 was released for 5 min with a flow rate of 5 l/min causing anaesthesia to the mites (as well as to the bees). The whole apparatus was then shaken several times to separate the mites from the bees. In a few minutes they had recovered from the effect of the anaesthesia.^39
Using a stereoscope binocular set varroa was placed in 20 mL glass vials. Stock solutions of the extraction materials were prepared in acetone in 10 mg/mL concentrations. In each experiment 20, 60, or 100 microliter aliquots of the stock solution were placed on filter paper adjusted to the cups of 20 ml vials, each containing five living mites. Acetone was used in the control experiments which were performed in five replicates. In both cases the solvent was allowed to evaporate before covering the vials. The vials were kept in an incubator at 37 C. Mortality of mites was recorded under a stereoscope binocular set after 5, 8, 12, and 19 hours.

The nature of series [1]: Cytotoxicity assay in human cells (WST-1). It is filed as cell-based. Conditions: HUVEC, 24 h exposure, WST-1 absorbance after 4h and 24h, read-out: concentrations at which not cytotoxic. As to the method:
Example 4.Cytotoxicity assays in human cells. Cytotoxicity of costic acid was measured in human umbilical vein endothelial cells (HUVEC), using the Cell Proliferation Reagent WST-1 (Cat. No. 13396300, Roche). The assay was performed according to the instructions protocol. Cells (7500 per well) were exposed to different concentrations of costic acid for 24 h before adding the WST-1 reagent. After 4h and again after 24h the absorbance was measured using an Optimax UV/VIS spectrometer (wavelengths: 440nm and 650nm). Costic acid was not cytotoxic at concentrations up to 230 micromolar.
For orientation: Tetrazolium assays rely on reduction of a dye to a coloured formazan, in cell work by metabolically active cells.

In a further series the test system is varroa. In words: Field tests on bee populations: count of dead varroa after spraying. In kind it is in vivo, Varroa destructor. The settings on record: after ten days; commercial acaricides; sprayed directly on the bees (100 mL per group, oxalic acid 70 mL). As to the method:
Example 5. Field Tests on bee populations. Field test were conducted using 40 bees on each trial at various locations on the island of Crete such as the Lassithi Plateau and the Messara Plains. In the field tests, Group B' extract was used in a solution of 1 g of this extract in 1 ml ethanol that was further diluted with water to a total volume of 1 L. A second solution was prepared as described above, using 2 g of Group B' mixture. For comparison purposes, each bee population was divided in […] groups. Two of these groups were treated with commercial acaricides A fifth, control group, was sprayed with deionized water. As known acaricide preparations were used a) BAYVAROL (active ingredient: Flumethrine) and b) a 4% solution of oxalic acid in 50% sugar solution. The total volume of solutions that were sprayed directly on the bees was 100 mL per group. In the case of the oxalic acid solution, the volume was 70 mL. Dead varroa was collected on a sheet of paper covered with Vaseline and sunflower oil. After ten days, the number of dead varroa was counted. Considering the number of dead varroa in the oxalic acid experiment as 100%, the respective numbers were 60% for either extract preparation, 55% for BAYVAROL and 8% for the control.

Consider `C=C(C(=O)O)C1CCC2(C)CCCC(=C)C2C1` (stereo not drawn) [costic acid], for which the “optimal concentration of the stock solution” value in the series on V. destructor (10 mg/mL stock solution in acetone, higher concentrations did not enhance activity) is recorded as 60 microliter per vial. Further, the “percent mortality of varroa” value in the series on V. destructor (Fig. 1, 20 or 60 or 100 microliters of 10mg/mL acetone solutions) is recorded as “increases drastically”. For the same molecule, the “time after application of the largest activity difference between costic acid and total extract” value with V. destructor (Fig. 2, activity as a function of time of application) is 8 h. Further, in the series with V. destructor (in vivo vial experiments, fractions and isolated components of D. viscosa extract), the acaricidal activity entry is on record as “acaricidal activity rested in costic acid”. Besides, the MNTC at 24 h in series [1] is at least 230 µM.

Regarding `O=C(O)C(=O)O` [oxalic acid], the “number of dead varroa, oxalic acid experiment as 100%” value with varroa is recorded as 100%.
